Experimental data from patent US20210300943A1, “OGA INHIBITOR COMPOUNDS” (Janssen Pharmaceutica NV, priority 2018, published 2021).

Columns and labels:
[1] = target: T1, recombinant human Meningioma Expressed Antigen 5 (MGEA5), also referred to as O-GlcNAcase (OGA) (Homo sapiens, UniProt O60502); assay: OGA biochemical assay (inhibition of FM-GlcNAc hydrolysis, fluorescence); conditions: for Emax / Enzymatic Emax (%): maximal effect; for Emax: read-out: Enzymatic Emax (%); for IC50: read-out: Enzymatic hOGA, pIC50 (converted)
T1 construct: Full length OGA enzyme was purchased at OnGene (cat #TP322411); purchased OnGene (so in the source)
T1 sequence (O60502 1-916): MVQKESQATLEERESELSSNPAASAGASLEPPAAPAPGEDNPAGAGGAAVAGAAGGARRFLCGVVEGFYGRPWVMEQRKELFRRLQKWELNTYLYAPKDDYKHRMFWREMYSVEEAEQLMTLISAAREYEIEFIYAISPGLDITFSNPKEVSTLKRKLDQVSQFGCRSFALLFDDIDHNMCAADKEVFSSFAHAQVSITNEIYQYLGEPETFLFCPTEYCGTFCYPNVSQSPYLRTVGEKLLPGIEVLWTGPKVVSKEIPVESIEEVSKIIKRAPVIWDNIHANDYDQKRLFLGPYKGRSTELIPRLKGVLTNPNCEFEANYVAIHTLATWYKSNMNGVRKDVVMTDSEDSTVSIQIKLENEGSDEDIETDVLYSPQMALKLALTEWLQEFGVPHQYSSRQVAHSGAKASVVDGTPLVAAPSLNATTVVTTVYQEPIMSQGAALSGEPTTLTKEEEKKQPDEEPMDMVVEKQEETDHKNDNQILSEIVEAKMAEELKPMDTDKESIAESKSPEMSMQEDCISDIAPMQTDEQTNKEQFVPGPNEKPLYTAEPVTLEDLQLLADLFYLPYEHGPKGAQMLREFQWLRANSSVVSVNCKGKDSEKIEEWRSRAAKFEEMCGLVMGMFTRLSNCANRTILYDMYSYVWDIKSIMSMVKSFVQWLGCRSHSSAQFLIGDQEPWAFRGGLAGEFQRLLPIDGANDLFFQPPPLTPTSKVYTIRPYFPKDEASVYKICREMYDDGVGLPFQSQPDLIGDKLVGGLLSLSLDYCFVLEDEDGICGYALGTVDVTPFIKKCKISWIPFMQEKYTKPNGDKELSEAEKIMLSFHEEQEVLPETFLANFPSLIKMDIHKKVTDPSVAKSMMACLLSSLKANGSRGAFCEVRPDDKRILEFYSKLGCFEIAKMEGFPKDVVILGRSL
Excerpt: The assay is based on the inhibition of the hydrolysis of fluorescein mono-β-D-N-Acetyl-Glucosamine (FM-GlcNAc) (Mariappa et al. 2015, Biochem J 470:255) by the recombinant human Meningioma Expressed Antigen 5 (MGEA5), also referred to as O-GlcNAcase (OGA). The hydrolysis FM-GlcNAc (Marker Gene technologies, cat #M1485) results in the formation of β-D-N-glucosamineacetate and fluorescein. The fluorescence of the latter can be measured at excitation wavelength 485 nm and emission wavelength 538 nm. An increase in enzyme activity results in an increase in fluorescence signal. Full length OGA enzyme was purchased at OnGene (cat #TP322411). The enzyme was stored in 25 mM Tris.HCl, pH 7.3, 100 mM glycine, 10% glycerol at −20° C. Thiamet G and GlcNAcStatin were tested as reference compounds (Yuzwa et al. 2008 Nature Chemical Biology 4:483; Yuzwa et al. 2012 Nature Chemical Biology 8:393). The assay was performed in 200 mM Citrate/phosphate buffer supplemented with 0.005% Tween-20. 35.6 g Na2HPO42H2O (Sigma, #C0759) were dissolved in 1 L water to obtain a 200 mM solution. 19.2 g citric acid (Merck, #1.06580) was dissolved in 1 L water to obtain a 100 mM solution. pH of the sodiumphosphate solution was adjusted with the citric acid solution to 7.2. The buffer to stop the reaction consists of a 500 mM Carbonate buffer, pH 11.0. 734 mg FM-GlcNAc were dissolved in 5.48 mL DMSO to obtain a 250 mM solution and was stored at −20° C. OGA was used at a 2 nM concentration and FM-GlcNAc at a 100 uM final concentration. Dilutions were prepared in assay buffer.
50 nl of a compound dissolved in DMSO was dispensed on Black Proxiplate TM 384 Plus Assay plates (Perkin Elmer, #6008269) and 3 μl fl-OGA enzyme mix added subsequently. Plates were pre-incubated for 60 min at room temperature and then 2 μl FM-GlcNAc substrate mix added. […] Plates were briefly centrifuged for 1 min at 1000 rpm and incubate at room temperature for 6 h. To stop the reaction 5 μl STOP buffer were added and plates centrifuge again 1 min at 1000 rpm. Fluorescence was quantified in the Thermo Scientific Fluoroskan Ascent or the PerkinElmer EnVision with excitation wavelength 485 nm and emission wavelength 538 nm.
For analysis a best-fit curve is fitted by a minimum sum of squares method. From this an IC50 value and Hill coefficient was obtained. High control (no inhibitor) and low control (saturating concentrations of standard inhibitor) were used to define the minimum and maximum values.

OGA = target: T2, OGA (Homo sapiens, UniProt O60502); assay: OGA cellular assay (ICC detection of O-GlcNAcylated proteins in HEK293 cells inducible for P301L mutant human Tau); type: cell-based; conditions: for EC50 / Cellular Emax (%): HEK293 cells inducible for P301L mutant human Tau; for EC50: 6 hours incubation, read-out: Cellular hOGA, pEC50 (converted); for Cellular Emax (%) / Emax: maximal effect, Thiamet G 200 uM as maximum; for Emax: HEK293, HEK293 cells inducible for P301L mutant human Tau
T2 construct: endogenous in cells; host or cells: HEK293 cells inducible for P301L mutant human Tau (2N4R)
T2 sequence (O60502 1-916): T1 sequence (O60502 1-916)
Procedure: HEK293 cells inducible for P301L mutant human Tau (isoform 2N4R) were established at Janssen. Thiamet-G was used for both plate validation (high control) and as reference compound (reference EC50 assay validation). OGA inhibition is evaluated through the immunocytochemical (ICC) detection of O-GlcNAcylated proteins by the use of a monoclonal antibody (CTD110.6; Cell Signaling, #9875) detecting 0-GlcNAcylated residues as previously described (Dorfmueller et al. 2010 Chemistry & biology, 17:1250). Inhibition of OGA will result in an increase of O-GlcNAcylated protein levels resulting in an increased signal in the experiment. Cell nuclei are stained with Hoechst to give a cell culture quality control and a rough estimate of immediate compounds toxicity, if any. ICC pictures are imaged with a Perkin Elmer Opera Phenix plate microscope and quantified with the provided software Perkin Elmer Harmony 4.1.
Cells were propagated in DMEM high Glucose (Sigma, #D5796) following standard procedures. 2 days before the cell assay cells are split, counted and seeded in Poly-D-Lysine (PDL) coated 96-wells (Greiner, #655946) plate at a cell density of 12,000 cells per cm^2 (4,000 cells per well) in 100 μl of Assay Medium (Low Glucose medium is used to reduce basal levels of GlcNAcylation) (Park et al. 2014 The Journal of biological chemistry 289:13519). At the day of compound test medium from assay plates was removed and replenished with 90 μl of fresh Assay Medium. 10 μl of compounds at a 10 fold final concentration were added to the wells. Plates were centrifuged shortly before incubation in the cell incubator for 6 hours. DMSO concentration was set to 0.2%. Medium is discarded by applying vacuum. For staining of cells medium was removed and cells washed once with 100 μl D-PBS (Sigma, #D8537). From next step onwards unless other stated assay volume was always 50 μl and incubation was performed without agitation and at room temperature. Cells were fixed in 50 μl of a 4% paraformaldehyde (PFA, Alpha aesar, #043368) PBS solution for 15 minutes at room temperature. […] Before analysis samples were washed 2 times manually for 5 minutes in ICC base buffer.
Imaging is performed using Perkin Elmer Phenix Opera using a water 20× objective and recording 9 fields per well. Intensity readout at 488 nm is used as a measure of O-GlcNAcylation level of total proteins in wells. To assess potential toxicity of compounds nuclei were counted using the Hoechst staining. IC50-values are calculated using parametric non-linear regression model fitting. As a maximum inhibition Thiamet G at a 200 uM concentration is present on each plate. In addition, a concentration response of Thiamet G is calculated on each plate.

| Compound | Emax [1] [%] | IC50 [1] [nM] | EC50 (OGA) [nM] | Cellular Emax (%) (OGA) | Emax (OGA) [%] | Enzymatic Emax (%) [1] [%] |
| --- | --- | --- | --- | --- | --- | --- |
| Cc1cc(CO[C@H]2CCCN(C(C)c3ccc4c(n3)OCCO4)C2)cc(C)n1 (single isomer, unassigned) [Product 166] | 98 | 10 | 100 | 67 | – | – |
| Cc1cc([C@H]2CCCN([C@H](C)c3ccc4c(n3)OCCO4)C2)c(F)c(C)n1 (single isomer, unassigned) [Product 186] | 83 | 2000 | > 1000 | – | -6 | – |
| Cc1cc([C@@H]2CCCN(C(C)c3ccc4c(n3)OCCO4)C2)cc(C)n1 (single isomer, unassigned) [Product 150] | 92 | 2000 | > 1000 | – | 3 | – |
| Cc1cc(CN[C@H]2CCCN(C(C)c3ccc4c(n3)OCCO4)C2)cc(C)n1 (some centres unmarked) [Product 194] | 97 | 20 | 251 | – | 71 | – |
| Cc1cc(OC[C@H]2CCCN([C@H](C)c3nc4c(cc3F)OCCO4)C2)cc(C)n1 [Product 154] | 101 | 50.1 | 126 | – | 86 | – |
| COc1cc(NC[C@H]2CCCN(C(C)c3ccc4c(n3)OCCO4)C2)cc(C)n1 (single isomer, unassigned) [Product 26] | – | 2.51 | 5.01 | – | 85 | 101 |
| Cc1cc(NCC2CCCN(C(C)c3ccc4c(n3)OCCO4)C2)cc(C(F)(F)F)n1 (single isomer, unassigned) [Product 33] | 102 | 2.51 | 31.6 | – | 83 | – |
| Cc1cc(OC[C@H]2CCCN(C(C)c3ccc4c(n3)OCCO4)C2)nc(C)n1 (single isomer, unassigned) [Product 162] | 93 | 794 | > 1000 | 3 | – | – |
| Cc1cc([C@@H]2CCCN([C@@H](C)c3ccc4c(n3)OCCO4)C2)cc(C)n1 (single isomer, unassigned) [Product 161] | 79 | 3160 | > 1000 | – | -4 | – |
| Cc1cc(C[C@H]2CCCN(C(C)c3ccc4c(n3)OCCO4)C2)cc(C(F)(F)F)n1 (mixture of isomers) [Product 69] | 102 | 12.6 | 50.1 | – | 90 | – |
| Cc1cc(C[C@H]2CCCN(C(C)c3cnc4c(c3)OCCN4)C2)cc(C)n1 (mixture of isomers) [Product 50] | 103 | 10 | 39.8 | – | 85 | – |
| Cc1cc(CO[C@H]2CCCN(C(C)c3nc4c(cc3F)OCCO4)C2)cc(C)n1 (some centres unmarked) [Product 168] | 99 | 3.16 | 31.6 | – | 69 | – |
| Cc1cc(C[C@H]2CCCN(C(C)c3ccc4c(c3)OCCN4C)C2)cc(C)n1 (mixture of isomers) [Product 49] | 103 | 126 | > 1000 | – | – | – |
| Cc1cc(C[C@H]2CCCN(C(C)c3cnc4c(c3)OCC4)C2)cc(C)n1 (mixture of isomers) [Product 57] | 101 | 12.6 | 158 | – | 78 | – |
| COc1cc(OC[C@H]2CCCN([C@H](C)c3ccc4c(n3)OCCO4)C2)cc(C)n1 (single isomer, unassigned) [Product 183] | 99 | 7.94 | 50.1 | – | 65 | – |
| Cc1cc(OC[C@H]2CCCN(C(C)c3ccc4c(n3)OCCO4)C2)cc(C)n1 (single isomer, unassigned) [Product 139] | 98 | 7.94 | 20 | – | 88 | – |
| Cc1cc(CC2(F)CCCN([C@@H](C)c3nc4c(cc3F)OCCO4)C2)cc(C)n1 (single isomer, unassigned) [Product 175] | 92 | 1000 | > 1000 | – | 1 | – |
| Cc1cc([C@@H]2CCCN(C(C)c3nc4c(cc3F)OCCO4)C2)cc(C)n1 (single isomer, unassigned) [Product 165] | 100 | 63.1 | 100 | – | 80 | – |
| Cc1cc(OC[C@H]2CCCN(C(C)c3nc4c(cc3F)OCCO4)C2)cc(C)n1 (single isomer, unassigned) [Product 156] | – | 251 | 316 | 55 | – | 97 |
| Cc1cc(NCC2CCCN(C(C)c3cc4c(cc3F)OCCO4)C2)cc(C(F)(F)F)n1 (centres unmarked) [Product 99] | 105 | 5.25 | 25.1 | – | 65 | – |
| CC(c1nc2c(cc1F)OCCO2)N1CCC[C@@H](CNc2ccc(F)cc2)C1 (some centres unmarked) [Product 195] | 100 | 15.8 | 79.4 | – | 112 | – |
